The source of these data is patent US10385069B2, “Imidazo[2,1-B]thiazole and 5,6-dihydroimidazo[2,1-B]thiazole derivatives useful as S100-inhibitors” (Active Biotech AB, priority 2015, dated 2019).

The structures appear in SMILES notation.

For the test, the target named is T1, interaction between biotinylated human S100A9 and human RAGE-Fc (Homo sapiens, UniProt P06702).
T1 construct: made in house; host or cells: E. coli
T1 sequence (P06702 1-114): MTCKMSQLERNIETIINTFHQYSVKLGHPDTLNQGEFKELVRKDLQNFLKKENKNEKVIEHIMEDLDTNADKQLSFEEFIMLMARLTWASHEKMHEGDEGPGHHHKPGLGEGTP
As to the kind of experiment: AlphaScreen inhibition assay, biot-hS100A9:hRAGE-Fc. Type of test: binding. Particulars: biot-hS100A9 pre-incubated with compound 1 h, assay buffer with CaCl2 and ZnCl2. Summed up:
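Biotinylated human S100A9, preincubated with compound, binds human RAGE-Fc on protein A Acceptor beads in HBS-P with CaCl2 and ZnCl2; streptavidin Donor beads added, AlphaScreen signal read. Protein levels set by cross-titration; beads 20 μg/mL final. Percent inhibition versus DMSO control; IC50 from varied compound concentrations.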
In general terms: In Alpha technology, singlet oxygen from a donor bead excites a nearby acceptor bead.
For the compound `CN1CCN(c2c(C(=O)O)nc3sc4c(Cl)c(F)ccc4n23)CC1` [Example 276, 9-Chloro-10-fluoro-3-(4-methylpiperazin-1-yl)-7-thia-2,5-diazatricyclo[6.4.0.0^2,6]dodeca-1(8),3,5,9,11-pentaene-4-carboxylic acid], the IC50 was 390 nM.
Turning to `O=C(O)c1nc2sc3c(Cl)c(F)ccc3n2c1NCCN1CCCC1` [Example 277, 9-Chloro-10-fluoro-3-{[2-(pyrrolidin-1-yl)ethyl]amino}-7-thia-2,5-diazatricyclo[6.4.0.0^2,6]dodeca-1(8),3,5,9,11-pentaene-4-carboxylic acid], the IC50 was found to be 1050 nM.
`O=C(NS(=O)(=O)c1ccccc1)C1CN2C(=N1)Sc1c2ccc(F)c1Cl` (stereo not drawn) [Example 278, N-(Benzenesulfonyl)-9-chloro-10-fluoro-7-thia-2,5-diazatricyclo[6.4.0.0^2,6]dodeca-1(8),5,9,11-tetraene-4-carboxamide]: the IC50 was found to be 170 nM.
The value for `CN(C)c1c(C(=O)O)nc2sc3c(n12)CC(C)(C)CC3(C)C` [Example 280, 3-(Dimethylamino)-9,9,11,11-tetramethyl-7-thia-2,5-diazatricyclo[6.4.0.0^2,6]dodeca-1(8),3,5-triene-4-carboxylic acid] was 420 nM; that for `O=C(O)c1nc2sc3c(Cl)c(F)ccc3n2c1C1CNC1` [Example 281, 3-(Azetidin-3-yl)-9-chloro-10-fluoro-7-thia-2,5-diazatricyclo[6.4.0.0^2,6]dodeca-1(8),3,5,9,11-pentaene-4-carboxylic acid] was 1800 nM; that for `CC(=O)N1CCN(c2c(C(=O)O)nc3sc4c(n23)CC(C)(C)CC4(C)C)CC1` [Example 284, 3-(4-Acetylpiperazin-1-yl)-9,9,11,11-tetramethyl-7-thia-2,5-diazatricyclo[6.4.0.0^2,6]dodeca-1(8),3,5-triene-4-carboxylic acid] was 700 nM.
With `O=C(O)C1CN2C(=N1)Sc1c2cc(OCCN2CCOCC2)c(Cl)c1Cl` (stereo not drawn) [Example 285, 9,10-Dichloro-11-[2-(morpholin-4-yl)ethoxy]-7-thia-2,5-diazatricyclo[6.4.0.0^2,6]dodeca-1(8),5,9,11-tetraene-4-carboxylic acid], the IC50 is 1270 nM.
The result for `C=C(C)c1c(C(=O)O)nc2sc3c(n12)CC(C)(C)CC3(C)C` [Example 287, 9,9,11,11-Tetramethyl-3-(prop-1-en-2-yl)-7-thia-2,5-diazatricyclo[6.4.0.0^2,6]dodeca-1(8),3,5-triene-4-carboxylic acid] reads 760 nM; that for `CN1CCN(c2c(C(=O)O)nc3sc4c(n23)CC(C)(C)CC4(C)C)CC1` [Example 288, 9,9,11,11-Tetramethyl-3-(4-methylpiperazin-1-yl)-7-thia-2,5-diazatricyclo[6.4.0.0^2,6]dodeca-1(8),3,5-triene-4-carboxylic acid], 1060 nM.
Consider `O=C(O)c1cn2c(n1)sc1c(F)c(Cl)c(OCCN3CCOCC3)cc12` [Example 289, 10-Chloro-9-fluoro-11-[2-(morpholin-4-yl)ethoxy]-7-thia-2,5-diazatricyclo[6.4.0.0^2,6]dodeca-1(8),3,5,9,11-pentaene-4-carboxylic acid], for which the IC50 came to 820 nM.
With `CN1CC(c2c(C(=O)O)nc3sc4c(Cl)c(F)ccc4n23)C1` [Example 290, 9-Chloro-10-fluoro-3-(1-methylazetidin-3-yl)-7-thia-2,5-diazatricyclo[6.4.0.0^2,6]dodeca-1(8),3,5,9,11-pentaene-4-carboxylic acid], the IC50 stood at 940 nM.
As to `O=C(O)c1nc2sc3c(Cl)c(F)ccc3n2c1C1CC1` [Example 291, 9-Chloro-3-cyclopropyl-10-fluoro-7-thia-2,5-diazatricyclo[6.4.0.0^2,6]dodeca-1(8),3,5,9,11-pentaene-4-carboxylic acid], the IC50 amounted to 100 nM.
For `CSc1c(C(=O)O)nc2sc3c(n12)CC(C)(C)CC3(C)C` [Example 292, 9,9,11,11-Tetramethyl-3-(methylsulfanyl)-7-thia-2,5-diazatricyclo[6.4.0.0^2,6]dodeca-1(8),3,5-triene-4-carboxylic acid], the IC50 stood at 290 nM.
For `CS(=O)(=O)N1CC(c2c(C(=O)O)nc3sc4c(Cl)c(F)ccc4n23)C1` [Example 293, 9-Chloro-10-fluoro-3-(1-methanesulfonylazetidin-3-yl)-7-thia-2,5-diazatricyclo[6.4.0.0^2,6]dodeca-1(8),3,5,9,11-pentaene-4-carboxylic acid], the IC50 turned out to be 500 nM.
The value for `CC1(C(=O)NS(C)(=O)=O)CN2C(=N1)Sc1c2ccc(F)c1Cl` (stereo not drawn) [Example 294, 9-Chloro-10-fluoro-N-methanesulfonyl-4-methyl-7-thia-2,5-diazatricyclo[6.4.0.0^2,6]dodeca-1(8),5,9,11-tetraene-4-carboxamide] was 780 nM.

The IC50 is the concentration needed to halve the response being measured.
